Test results: US9078909B2, “Tertiary amines, medicaments containing said amines, use thereof and processes for the preparation thereof” (Boehringer Ingelheim International GmbH, priority 2012, dated 2015)
Read-outs that look alike come from different tables or passages of the source.

Target: T1, epithelial sodium channel (ENaC) (Mus musculus, UniProt Q61180+Q9WU38+Q9WU39)
T1 construct: Mouse kidney M-1 cells were cultivated in DMEM; endogenous in cells; host or cells: mouse kidney M-1 cells (cortical collecting duct line), dexamethasone-treated, on transwell filters
T1 sequence (Q61180 1-699): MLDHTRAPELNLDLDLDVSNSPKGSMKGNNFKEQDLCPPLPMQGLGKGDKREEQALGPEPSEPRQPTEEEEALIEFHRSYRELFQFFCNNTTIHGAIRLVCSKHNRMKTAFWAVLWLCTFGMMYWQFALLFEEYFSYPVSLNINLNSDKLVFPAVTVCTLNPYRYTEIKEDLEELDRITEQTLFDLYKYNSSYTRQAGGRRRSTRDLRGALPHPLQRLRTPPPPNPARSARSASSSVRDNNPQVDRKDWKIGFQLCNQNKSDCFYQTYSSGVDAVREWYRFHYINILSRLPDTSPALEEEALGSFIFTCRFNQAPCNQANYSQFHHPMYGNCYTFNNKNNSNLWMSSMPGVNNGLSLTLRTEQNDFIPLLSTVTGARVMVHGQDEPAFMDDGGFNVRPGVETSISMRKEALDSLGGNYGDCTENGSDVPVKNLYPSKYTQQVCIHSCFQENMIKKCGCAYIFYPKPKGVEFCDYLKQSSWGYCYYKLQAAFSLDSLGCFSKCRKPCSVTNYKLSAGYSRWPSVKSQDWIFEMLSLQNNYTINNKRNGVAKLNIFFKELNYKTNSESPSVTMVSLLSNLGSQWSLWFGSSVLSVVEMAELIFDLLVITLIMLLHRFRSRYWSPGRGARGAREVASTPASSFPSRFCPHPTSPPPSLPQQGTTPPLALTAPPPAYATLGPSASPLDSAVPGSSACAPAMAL
T1 sequence (Q9WU38 1-638): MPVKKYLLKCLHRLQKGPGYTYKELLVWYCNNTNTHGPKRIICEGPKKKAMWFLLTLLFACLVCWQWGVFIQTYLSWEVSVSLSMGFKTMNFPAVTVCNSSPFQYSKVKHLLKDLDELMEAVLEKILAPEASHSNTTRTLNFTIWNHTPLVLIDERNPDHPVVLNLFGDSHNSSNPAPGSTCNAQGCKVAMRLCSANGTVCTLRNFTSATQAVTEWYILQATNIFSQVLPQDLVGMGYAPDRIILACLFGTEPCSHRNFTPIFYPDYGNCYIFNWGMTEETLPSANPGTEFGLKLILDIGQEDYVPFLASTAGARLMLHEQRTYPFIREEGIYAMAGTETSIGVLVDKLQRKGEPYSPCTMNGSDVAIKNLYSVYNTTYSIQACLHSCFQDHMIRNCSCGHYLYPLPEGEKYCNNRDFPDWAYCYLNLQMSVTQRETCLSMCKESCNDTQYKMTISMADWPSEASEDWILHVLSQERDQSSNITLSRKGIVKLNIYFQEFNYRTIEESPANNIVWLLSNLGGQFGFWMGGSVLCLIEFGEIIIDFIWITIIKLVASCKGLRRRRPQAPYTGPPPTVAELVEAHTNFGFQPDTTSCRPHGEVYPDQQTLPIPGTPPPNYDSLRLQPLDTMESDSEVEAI
T1 sequence (Q9WU39 1-655): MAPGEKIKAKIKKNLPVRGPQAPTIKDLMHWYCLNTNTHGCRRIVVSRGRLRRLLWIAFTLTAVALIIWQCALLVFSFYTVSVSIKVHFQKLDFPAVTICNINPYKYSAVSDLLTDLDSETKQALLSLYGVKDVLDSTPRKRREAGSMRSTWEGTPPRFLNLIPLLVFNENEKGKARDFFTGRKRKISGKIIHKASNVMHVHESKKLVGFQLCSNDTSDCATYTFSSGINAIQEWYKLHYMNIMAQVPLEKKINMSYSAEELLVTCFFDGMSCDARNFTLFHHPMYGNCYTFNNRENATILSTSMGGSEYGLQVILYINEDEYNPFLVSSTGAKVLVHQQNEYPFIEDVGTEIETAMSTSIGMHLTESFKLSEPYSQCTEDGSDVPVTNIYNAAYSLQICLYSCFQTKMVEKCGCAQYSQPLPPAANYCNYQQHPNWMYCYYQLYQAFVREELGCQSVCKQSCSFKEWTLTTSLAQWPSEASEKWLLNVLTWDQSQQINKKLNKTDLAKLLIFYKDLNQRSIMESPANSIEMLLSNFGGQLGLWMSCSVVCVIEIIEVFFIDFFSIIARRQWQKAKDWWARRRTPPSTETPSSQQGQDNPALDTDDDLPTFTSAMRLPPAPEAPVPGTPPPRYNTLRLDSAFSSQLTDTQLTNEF
Assay: Ussing Chamber assay: inhibition of amiloride sensitive short circuit current (I_sc) in M-1 cells
Format: cell-based
Description: Ussing Chamber: Mouse kidney M-1 cells were cultivated in DMEM containing 5% FCS and 5 μM dexamethasone for 10 to 12 days on polyester transwell filters. Filters were inserted into a teflon-coated well-plate which fit into the in-house ussing chamber system. Prior to measurement the medium of M-1 cells was replaced with Caco-2 transport buffer (Invitrogen, Germany). During measurements, the Ussing chamber temperature was kept at 37° C. Short circuit currents (I_sc) were measured in the voltage-clamp mode using an in-house built amplifier (Boehringer Ingelheim, Biberach) with the software package Lab View for data acquisition and analysis. The transepithelial electrical resistance (TEER) was determined by the application of voltage steps of ±5 mV every 5 sec. Compounds were administered at a final concentration of 3 μM or at increasing concentrations (e.g. 1-3-10 μM) to the apical solution. At the end of each experiment the amiloride sensitive I_SC was measured by adding 3 μM amiloride to the apical compartment. Results are expressed as inhibition in percent of the amiloride effect or as IC50.
With the example compounds given above, the following IC50 values were determined in the Ussing Chamber assay: […]

[1] = Ussing Chamber, mouse kidney M-1 cells on transwell filters, short circuit current, compound added to apical solution, 37° C., read-out: IC50

IC50 [1] [nM]	SMILES	IC50 [nM]
5	CCNC(=O)CN1CCC(NC(N)=NC(=O)c2nc(Cl)c(N)nc2N)CC1 [Example 1.33]	
4	CCOC(=O)c1cccc(CCNC(=O)CN2CCC(NC(N)=NC(=O)c3nc(Cl)c(N)nc3N)CC2)c1 [Example 1.34]	
31	NC(=NC(=O)c1nc(Cl)c(N)nc1N)NC1CCN(CC(=O)Nc2cccc(C(=O)O)c2)CC1 [Example 2.2]	
47	NC(=NC(=O)c1nc(Cl)c(N)nc1N)NC1CCN(CC(=O)Nc2ccccc2C(=O)O)CC1 [Example 2.3]	
19	CN(C)CCNC(=O)c1ccccc1NC(=O)CN1CCC(NC(=N)NC(=O)c2nc(Cl)c(N)nc2N)CC1 [Example 3.1]	
19	COC(=O)CCN1CCC(NC(=N)NC(=O)c2nc(Cl)c(N)nc2N)CC1 [Example 4.1]	
10	CCSCCN1CCC(NC(N)=NC(=O)c2nc(Cl)c(N)nc2N)CC1 [Example 4.2]	
10	CCS(=O)(=O)CCN1CCC(NC(N)=NC(=O)c2nc(Cl)c(N)nc2N)CC1 [Example 4.3]	
11	CCOC(=O)CNC(=O)CN1CCC(NC(N)=NC(=O)c2nc(Cl)c(N)nc2N)CC1 [Example 4.4]	
36	CCN(CC)C(=O)CN1CCC(NC(N)=NC(=O)c2nc(Cl)c(N)nc2N)CC1 [Example 4.5]	
7	CCOC(=O)CN1CCC(NC(N)=NC(=O)c2nc(Cl)c(N)nc2N)CC1 [Example 4.6]	
30	NC(=NC(=O)c1nc(Cl)c(N)nc1N)NC1CCN(CCN2CCOCC2)CC1 [Example 4.7]	
27	COC(=O)CCCN1CCC(NC(N)=NC(=O)c2nc(Cl)c(N)nc2N)CC1 [Example 4.8]	
6	NC(=NC(=O)c1nc(Cl)c(N)nc1N)NC1CCN(CC(=O)OCc2ccccc2)CC1 [Example 4.9]	
4	CCCCOC(=O)CN1CCC(NC(N)=NC(=O)c2nc(Cl)c(N)nc2N)CC1 [Example 4.10]	
27	COC(=O)CN1CCC(NC(N)=NC(=O)c2nc(Cl)c(N)nc2N)CC1 [Example 4.11]	
55	COCCOCCOCCOCCN1CCC(NC(N)=NC(=O)c2nc(Cl)c(N)nc2N)CC1 [Example 4.12]	
30	NC(=NC(=O)c1nc(Cl)c(N)nc1N)NC1CCN(CC2CCCC2)CC1 [Example 4.13]	
53	CCN1CCC(NC(N)=NC(=O)c2nc(Cl)c(N)nc2N)CC1 [Example 4.14]	
12	NC(=NC(=O)c1nc(Cl)c(N)nc1N)NC1CCN(CC(=O)N2CCSCC2)CC1 [Example 4.15]	
	CCOP(=O)(CN1CCC(NC(N)=NC(=O)c2nc(Cl)c(N)nc2N)CC1)OCC [Example 4.16]	19
72	CN1CCC(CN2CCC(NC(N)=NC(=O)c3nc(Cl)c(N)nc3N)CC2)CC1 [Example 4.17]	
3	CC(C)(C)OC(=O)CN1CCC(NC(N)=NC(=O)c2nc(Cl)c(N)nc2N)CC1 [Example 4.18]	

IC50 [1] [nM]	SMILES	IC50 [nM]
9	CCOC(=O)C(C(=O)OCC)N1CCC(NC(N)=NC(=O)c2nc(Cl)c(N)nc2N)CC1 [Example 4.19]	
10	NC(=NC(=O)c1nc(Cl)c(N)nc1N)NC1CCN(C(C(=O)NCc2ccccc2)C(=O)NCc2ccccc2)CC1 [Example 4.20]	
4	CC(C)(C)NC(=O)CN1CCC(NC(N)=NC(=O)c2nc(Cl)c(N)nc2N)CC1 [Example 4.22]	
147	NC(=NC(=O)c1nc(Cl)c(N)nc1N)NC1CCN(CCCS(=O)(=O)O)CC1 [Example 4.23]	
17	CC(C)(C)OC(=O)C1CCN(C(=O)CN2CCC(NC(N)=NC(=O)c3nc(Cl)c(N)nc3N)CC2)CC1 [Example 4.24]	
266	N=C(NC(=O)c1nc(Cl)c(N)nc1N)NC1CCN(CC(=O)O)CC1 [Example 5.1]	
80	NC(=NC(=O)c1nc(Cl)c(N)nc1N)NC1CCN(CC(=O)NCC(=O)O)CC1 [Example 5.2]	
169	NC(=NC(=O)c1nc(Cl)c(N)nc1N)NC1CCN(CCCC(=O)O)CC1 [Example 5.3]	
176	NC(=NC(=O)c1nc(Cl)c(N)nc1N)NC1CCN(CC(=O)N2CCC(C(=O)O)CC2)CC1 [Example 5.4]	
5	COc1ccc(CNC(=O)CN2CCC(N/C(N)=N/C(=O)c3nc(Cl)c(N)nc3N)CC2)cc1 [Example 6.1]	
27	COCCN(CCOC)C(=O)CN1CCC(NC(N)=NC(=O)c2nc(Cl)c(N)nc2N)CC1 [Example 6.2]	
1	NC(=NC(=O)c1nc(Cl)c(N)nc1N)NC1CCN(CC(=O)NCc2ccccc2SC(F)(F)F)CC1 [Example 6.3]	
3	COC(=O)c1ccc(CNC(=O)CN2CCC(NC(N)=NC(=O)c3nc(Cl)c(N)nc3N)CC2)cc1 [Example 6.4]	
6	COC(=O)c1cccc(CNC(=O)CN2CCC(NC(N)=NC(=O)c3nc(Cl)c(N)nc3N)CC2)c1 [Example 6.5]	
1	CCCCNC(=O)CN1CCC(NC(N)=NC(=O)c2nc(Cl)c(N)nc2N)CC1 [Example 6.6]	
3	CC(C)NC(=O)CN1CCC(NC(N)=NC(=O)c2nc(Cl)c(N)nc2N)CC1 [Example 6.7]	
5	NC(=O)c1ccc(CNC(=O)CN2CCC(NC(N)=NC(=O)c3nc(Cl)c(N)nc3N)CC2)cc1 [Example 6.8]	
8	NC(=O)c1cccc(CNC(=O)CN2CCC(NC(N)=NC(=O)c3nc(Cl)c(N)nc3N)CC2)c1 [Example 6.9]	
3	CN1CCN(c2cccc(CNC(=O)CN3CCC(NC(N)=NC(=O)c4nc(Cl)c(N)nc4N)CC3)c2)CC1 [Example 6.10]	
3	NC(=NC(=O)c1nc(Cl)c(N)nc1N)NC1CCN(CC(=O)NCc2nccs2)CC1 [Example 6.11]	
2	COCCNC(=O)CN1CCC(NC(N)=NC(=O)c2nc(Cl)c(N)nc2N)CC1 [Example 6.12]	
3	NC(=NC(=O)c1nc(Cl)c(N)nc1N)NC1CCN(CC(=O)NCc2ccc(N3CCNC3=O)cc2)CC1 [Example 6.13]	
35	N#CCN1CCC(NC(=N)NC(=O)c2nc(Cl)c(N)nc2N)CC1 [Example 7.1]	
